Patent US20110092456A1, “Methods of increasing cAMP levels and uses thereof” (priority 2009, published 2011)

How the values were obtained:
[1] = tested on: CREB; assay: Immunoblotting of myocardial CREB, mouse; type: in vivo; conditions: IR
Experimental: (§1) Protocol 1: Mice received 3-day pretreatment with: 1) SIT (300 mg/kg per day); 2) PIO (5 mg/kg per day); 3) SIT+PIO; or water alone (control). Drugs were suspended in water and administered by oral gavage once daily. On the 4th day, mice received intravenous H-89 (20 mg/kg) or vehicle (5% DMSO) (40). One hour after injection, mice underwent coronary artery ligation for 30 minutes followed by 4-hour reperfusion, or mice were euthanized under anesthesia and hearts were explanted without being subjected to ischemia. For immunoblotting and enzyme activity, hearts were rinsed in cold PBS (pH 7.4), containing 0.16 mg/ml heparin to remove red blood cells and clots, frozen in liquid nitrogen and stored at −80° C. for further analyses.
(§2) Myocardial samples from the risk zone of the anterior wall of the left ventricular wall exposed to ischemia-reperfusion (IR), or from the anterior wall of control hearts not exposed to ischemia were homogenized in lysis buffer (in mMol): 25 Tris.HCl (pH 7.4), 0.5 EDTA, 0.5 EGTA, 1 phenylmethylsulfonyl 193 fluoride, 1 dithiothreitol, 25 NaF, 1 Na3VO4, 1% Triton X-100, 2% SDS and 1% 194 protease inhibitor cocktail. The lysate was centrifuged at 10,000 g for 15 min at 4° C. The resulting supernatants were collected. Protein (50 μg) was fractionated by SDS-PAGE (4%-20% polyacrylamide gels) and transferred to PVDF membranes (Millipore, Bedford, Mass.). The membranes were incubated overnight at […] with primary antibodies. Bound antibodies were detected using the chemiluminescent substrate (NEN Life Science Products, Boston, Mass.). The protein signals were quantified 200 with an image-scanning densitometer, and the strength of each 201 protein signal was normalized to the corresponding β-actin signal. Data are expressed as percent of the expression in the 202 control group.

[2] = tested on: 15dPGJ2; assay: Myocardial 15dPGJ2 levels, mouse; type: in vivo
Experimental: as §1
(§3) Myocardial samples of the anterior wall of the left ventricle were homogenized in cold PBS (pH 7.4), and centrifuged. The supernatants were collected and stored on ice. […] Each myocardial sample was tested in triplicate (the first without an inhibitor; the second with DuP-697, a specific COX2 inhibitor; and the third with Sc560, a specific COX1 inhibitor. COX1 activity was calculated as the difference between total COX activity in the sample without an inhibitor and the sample with Sc560, and COX2 activity as the difference between total COX activity in the sample without an inhibitor and the sample with DuP-697.

[3] = tested on: cPLA2; assay: Myocardial cPLA2 activity, mouse; type: in vivo; conditions: for cPLA2 activity: mice, 3-day pretreatment, words
Experimental: as §1
(§4) Myocardial samples of the anterior wall of the left ventricle were homogenized in cold PBS (pH 7.4), and centrifuged. The supernatants were collected and stored on ice. Measurement of 6-Keto-PGF1α, the stable metabolite of prostacyclin, 15dPGJ2, 15-epilipoxinA4, and PLA2 activity were made using immunoassay assay kits. The COX activity assay kit measures the peroxidase activity of COX, assayed colorimetrically by monitoring the appearance of oxidized N,N,N″,N″-tetramethyl-p-phenylenediamaine (TMPD) at 590 nm. Each myocardial sample was tested in triplicate (the first without an inhibitor; the second with DuP-697, a specific COX2 inhibitor; and the third with Sc560, a specific COX1 inhibitor. COX1 activity was calculated as the difference between total COX activity in the sample without an inhibitor and the sample with Sc560, and COX2 activity as the difference between total COX activity in the sample without an inhibitor and the sample with DuP-697.

[4] = tested on: eNOS; assay: Immunoblotting of myocardial eNOS, mouse; type: in vivo
Experimental: as §1, §2

[5] = tested on: cAMP; assay: Myocardial cAMP levels, mouse; type: in vivo; conditions: for myocardial cAMP levels: mice, 3-day pretreatment, hearts not subjected to ischemia, words
Experimental: as §1
Myocardial samples from the anterior wall of the left ventricle of hearts that were not subjected to ischemia were homogenize in 1 ml cold extraction buffer [20 mM Tris-HCl (pH7.4), 0.5 mM EDTA, 0.5 mM EGTA, 10 mM β-mercaptoethanol, 1 mM phenylmethylsulfonyl fluoride, 0.1 mM dithiothreitol (DTT), 1 μg/ml leupeptin, 1 μg/ml aprotinin, 0.1% TritonX-100], centrifuged at 14,000×g for 15 min at 4° C., and the supernatants were collected. cAMP levels and PKA activity were measured using assay kits according to the manufacturer's instructions.

[6] = tested on: COX2; assay: Myocardial COX2 activity, mouse; type: in vivo; conditions: for COX2 activity: mice, 3-day pretreatment, words
Experimental: as §1, §4

[7] = tested on: 15-epi-lipoxinA4; assay: Myocardial 15-epi-lipoxinA4 levels, mouse; type: in vivo
Experimental: as §1, §4

[8] = tested on: coronary artery ligation for 30 minutes followed by 4-hour reperfusion; assay: Mouse coronary artery ligation/reperfusion infarct size; type: in vivo; conditions: for IS, expressed as a percent of the left ventricle or a percent of the area at risk: words
Experimental: as §1
Protocol 2: Mice received 14-day pretreatment with: 1) SIT (300 mg/kg per day); 2) PIO (5 mg/kg per day); 3) SIT+PIO; or water alone (control), as above. Mice underwent coronary artery ligation for 30 minutes followed by 4-hour reperfusion. […] The chest was opened and the left coronary artery was encircled with a suture and ligated for 30 minutes. Ischemia was verified by regional dysfunction and discoloration of the ischemic zone.
Hearts were excised and the left ventricle was sliced transversely into 6 sections. Slices were incubated for 10 minutes at 37 C in 1% buffered (pH=7.4) 2,3,5-triphenyl tetrazolium-chloride (TTC), fixed in a 10% formaldehyde and photographed in order to identify the AR (uncolored by the blue dye), the IS (unstained by TTC), and the non ischemic zones (colored by blue dye). The area of AR and IS in each slice were determined by planimetry, converted into percentages of the whole for each slice, and multiplied by the weight of the slice. The results were summed to obtain the weight of the myocardial AR and IS (38, 39).

[9] = tested on: Protein Kinase A (PKA); assay: Myocardial PKA activity, mouse; type: in vivo
Experimental: Protocol 1: Mice received 3-day pretreatment with: 1) SIT (300 mg/kg per day); 2) PIO (5 mg/kg per day); 3) SIT+PIO; or water alone (control). Drugs were suspended in water and administered by oral gavage once daily. […] One hour after injection, mice underwent coronary artery ligation for 30 minutes followed by 4-hour reperfusion, or mice were euthanized under anesthesia and hearts were explanted without being subjected to ischemia.

[10] = tested on: 6-keto-PGF1α; assay: Myocardial 6-keto-PGF1α levels, mouse; type: in vivo
Experimental: as §1, §3

[11] = tested on: middle cerebral artery occlusion; conditions: rat; 2 h occlusion, 24 h reperfusion; oral cilostazol 30 mg/kg, aspirin 300 mg/kg, clopidogrel 30 mg/kg; cited from earlier work
[12] = cited from earlier work
[13] = H-89 20 mg/kg i.v. after 3-day PIO
[14] = H-89 20 mg/kg i.v. after 3-day SIT
[15] = H-89 20 mg/kg i.v. after 3-day PIO, IR
[16] = H-89 20 mg/kg i.v. after 3-day SIT, IR
[17] = Protocol 1: mice, 3-day pretreatment (SIT 300 mg/kg per day, PIO 5 mg/kg per day), H-89 20 mg/kg i.v. alone
[18] = mice, 3-day pretreatment, words
[19] = mice, 3-day pretreatment, IR-induced increase, immunoblot, words
[20] = 50 patients, primary stenting for ST elevation acute myocardial infarction, cilostazol 100 mg BID versus aspirin alone

O=S(=O)(NCCNC/C=C/c1ccc(Br)cc1)c1cccc2cnccc12 [H-89]
levels of P-CREB: H-89 on the effect of PIO [1, 13]: blocked this effect of SIT and PIO
levels of P-CREB: H-89 on the effect of SIT [1, 14]: blocked this effect of SIT and PIO
15dPGJ2 levels: H-89 on the effect of PIO [2, 13]: did not block the effect of PIO
cPLA2 activity: H-89 on the effect of PIO [3, 13]: did not block the effect of PIO
cPLA2 activity: H-89 in combination with SIT [3, 14]: no effect on cPLA2 activity
cPLA2 activity [3]: no effect on cPLA2 activity
Ser-633 P-eNOS levels: H-89 on the effect of PIO [4, 15]: attenuated this increase
Ser-1177 P-eNOS levels: H-89 on the effect of PIO [4, 15]: attenuated the effects of both SIT and PIO
Ser-633 P-eNOS levels: H-89 on the effect of SIT [4, 16]: attenuated this increase
Ser-1177 P-eNOS levels: H-89 on the effect of SIT [4, 16]: attenuated the effects of both SIT and PIO
myocardial cAMP levels: H-89 on the SIT effect [5, 14]: did not block the SIT effect
myocardial cAMP levels [5]: no effect on cAMP levels
COX2 activity: H-89 on the PIO induced increase [6, 13]: did not block the PIO induced increase
COX2 activity: H-89 in combination with SIT [6, 14]: no effect on COX2 activity
COX2 activity [6]: no effect on COX2 activity
15-epi-lipoxinA4 levels: H-89 on the effect of PIO [7, 13]: completely blocked the effect of both PIO and SIT
15-epi-lipoxinA4 levels: H-89 on the effect of SIT [7, 14]: completely blocked the effect of both PIO and SIT
IS, expressed as a percent of the left ventricle or a percent of the area at risk [8, 17]: no effect on IS
IS: effect of H-89 on the effect of PIO ([8]; Protocol 1, H-89 20 mg/kg i.v. one hour before ligation after 3-day PIO): only partially blocked the effect of PIO
IS: effect of H-89 on the effect of SIT ([8]; Protocol 1, H-89 20 mg/kg i.v. one hour before ligation after 3-day SIT): completely blocked the effect of SIT
PKA activity: H-89 on the PIO induced increase [9, 13]: completely blocked
PKA activity: H-89 on the SIT induced increase [9, 14]: completely blocked
6-keto-PGF1α levels: H-89 on the effect of PIO [10, 13]: did not block the effect of PIO

N[C@@H](CC(=O)N1CCn2c(nnc2C(F)(F)F)C1)Cc1cc(F)c(F)cc1F [SIT, sitagliptin phosphate]
total CREB levels ([1]; mice, 3-day pretreatment, immunoblot, words): did not affect total CREB levels
levels of P-CREB ([1]; mice, 3-day pretreatment, versus control no IR or control IR, words): significantly higher
15dPGJ2 levels [2, 18]: no effect
cPLA2 activity [3]: but not SIT, augmented cPLA2 activity
Ser-633 P-eNOS levels [4, 19]: augmented this increase
Ser-1177 P-eNOS levels [4, 19]: augmented this increase
total eNOS levels ([4]; mice, 3-day pretreatment, ischemia-reperfusion (IR), immunoblot, words): no effect on total eNOS levels
myocardial cAMP levels [5]: significant increase
COX2 activity [6]: no effect on COX2 activity
15-epi-lipoxinA4 levels [7, 18]: significantly increased
IS, expressed as a percent of the left ventricle or a percent of the area at risk [8, 17]: significantly smaller
IS, expressed as a percent of the left ventricle or a percent of the area at risk ([8]; Protocol 2: mice, 14-day pretreatment (SIT 300 mg/kg per day, PIO 5 mg/kg per day)): significantly smaller
myocardial PKA activity ([9]; mice, 3-day pretreatment, hearts not subjected to ischemia, words): augmented PKA activity
6-keto-PGF1α levels [10, 18]: no effect

CC(=O)Oc1ccccc1C(=O)O [aspirin]
brain infarct size [11]: but not aspirin (300 mg/kg) or clopidogrel (30 mg/kg) reduced brain infarct size
6-month restenosis rate [12, 20]: 20%
target lesion revascularization [12, 20]: 16%
in-stent stenosis ([12]; 70 patients, Palmaz-Schatz stenting, cilostazol 200 mg/d, aspirin 81 mg/d): 26.8%

COC(=O)[C@H](c1ccccc1Cl)N1CCc2sccc2C1 [clopidogrel]
brain infarct size [11]: but not aspirin (300 mg/kg) or clopidogrel (30 mg/kg) reduced brain infarct size
